# System: MV-4-11 cells
# Experiment: Gene expression microarray analysis (Affymetrix PrimeView) and GSEA
# Type: cell-based, human
# Parameters: RFU PODN (11730768_x_at) / Fold change /veh PODN (11730768_x_at) / RFU LINC00158 (11744669_a_at) / Fold change /veh LINC00158 (11744669_a_at) / RFU DUSP10 (11751237_a_at) / Fold change /veh DUSP10 (11751237_a_at) / RFU ID3 (11757404_x_at) / Fold change /veh ID3 (11757404_x_at) / RFU PLEKHG5 (11737974_s_at) / Fold change /veh PLEKHG5 (11737974_s_at) / RFU LRRC4B (11730491_at) / Fold change /veh LRRC4B (11730491_at) / RFU GIMAP4 (11747438_a_at) / Fold change /veh GIMAP4 (11747438_a_at) / RFU KRT8 (11758183_x_at) / Fold change /veh KRT8 (11758183_x_at) / RFU CNN1 (11734310_a_at) / Fold change /veh CNN1 (11734310_a_at) / RFU VPS37D (11726825_at) / Fold change /veh VPS37D (11726825_at) / RFU C10orf10 (11716522_x_at) / Fold change /veh C10orf10 (11716522_x_at) / RFU KIR2DL2 /// KIR2DL4 /// KIR2DL5A /// KIR2DL5B /// KIR2DS1 /// KIR2DS2 /// KIR2DS3 /// KIR2DS4 /// KIR3DL3 /// KIR3DL3 /// KIR3DS1 (11738374_at) / Fold change /veh KIR2DL2 /// KIR2DL4 /// KIR2DL5A /// KIR2DL5B /// KIR2DS1 /// KIR2DS2 /// KIR2DS3 /// KIR2DS4 /// KIR3DL3 /// KIR3DL3 /// KIR3DS1 (11738374_at) / RFU C1QL1 (11718748_at) / Fold change /veh C1QL1 (11718748_at) / RFU TMPRSS4 (11747572_a_at) / Fold change /veh TMPRSS4 (11747572_a_at) / RFU HAMP (11756126_x_at) / Fold change /veh HAMP (11756126_x_at) / RFU RNFT2 (11725882_a_at) / Fold change /veh RNFT2 (11725882_a_at) / RFU NR4A2 (11747474_a_at) / Fold change /veh NR4A2 (11747474_a_at) / RFU ABCC12 (11746883_a_at) / Fold change /veh ABCC12 (11746883_a_at) / RFU TMEM136 (11760407_x_at) / Fold change /veh TMEM136 (11760407_x_at) / RFU CLDN22 /// WWC2 (11732394_at) / Fold change /veh CLDN22 /// WWC2 (11732394_at) / RFU HLA-DPB1 (11760878_x_at) / Fold change /veh HLA-DPB1 (11760878_x_at) / RFU SPINT1 (11716480_a_at) / Fold change /veh SPINT1 (11716480_a_at) / RFU GAP43 (11754022_s_at) / Fold change /veh GAP43 (11754022_s_at) / RFU A4GNT (11735810_at) / Fold change /veh A4GNT (11735810_at) / RFU PRB3 (11715151_x_at) / Fold change /veh PRB3 (11715151_x_at) / RFU TUBB4B (11761932_at) / Fold change /veh TUBB4B (11761932_at) / RFU CAPN14 (11732068_a_at) / Fold change /veh CAPN14 (11732068_a_at) / RFU TMCC2 (11721928_a_at) / Fold change /veh TMCC2 (11721928_a_at) / RFU IRGQ (11745062_a_at) / Fold change /veh IRGQ (11745062_a_at) / RFU FAM174B (11720279_a_at) / Fold change /veh FAM174B (11720279_a_at) / RFU TMPRSS4 (11748680_a_at) / Fold change /veh TMPRSS4 (11748680_a_at) / RFU FAM212B (11763350_a_at) / Fold change /veh FAM212B (11763350_a_at) / RFU PLEKHG5 (11743358_a_at) / Fold change /veh PLEKHG5 (11743358_a_at) / RFU ZSCAN30 (11745921_a_at) / Fold change /veh ZSCAN30 (11745921_a_at) / RFU CMKLR1 (11741424_a_at) / Fold change /veh CMKLR1 (11741424_a_at) / RFU LOC101060620 /// MAPK8IP1 (11723275_at) / Fold change /veh LOC101060620 /// MAPK8IP1 (11723275_at) / RFU SPTSSB (11747773_x_at) / Fold change /veh SPTSSB (11747773_x_at) / RFU PRSS12 (11739890_at) / Fold change /veh PRSS12 (11739890_at) / RFU BIN1 (11741810_x_at) / Fold change /veh BIN1 (11741810_x_at) / RFU WNT11 (11732464_a_at) / Fold change /veh WNT11 (11732464_a_at) / RFU C10orf10 (11716521_a_at) / Fold change /veh C10orf10 (11716521_a_at) / RFU C5orf56 (11738089_at) / Fold change /veh C5orf56 (11738089_at) / RFU CYB561 (11721691_x_at) / Fold change /veh CYB561 (11721691_x_at) / RFU ANKRD19P (11752326_a_at) / Fold change /veh ANKRD19P (11752326_a_at) / RFU OR2T12 /// OR2T33 /// OR2T8 (11738714_s_at) / Fold change /veh OR2T12 /// OR2T33 /// OR2T8 (11738714_s_at) / RFU VCAN (11748164_a_at) / Fold change /veh VCAN (11748164_a_at) / RFU JSRP1 (11732532_at) / Fold change /veh JSRP1 (11732532_at) / RFU KRTAP10-11 (11738290_x_at) / Fold change /veh KRTAP10-11 (11738290_x_at) / RFU MYO3A (11730013_a_at) / Fold change /veh MYO3A (11730013_a_at) / RFU EBF3 (11725865_a_at) / Fold change /veh EBF3 (11725865_a_at) / RFU CAMK2N1 (11719241_x_at) / Fold change /veh CAMK2N1 (11719241_x_at) / RFU C5orf56 (11738088_a_at) / Fold change /veh C5orf56 (11738088_a_at) / RFU OLFML3 (11715873_a_at) / Fold change /veh OLFML3 (11715873_a_at) / RFU LOC100653217 /// NTM (11731650_a_at) / Fold change /veh LOC100653217 /// NTM (11731650_a_at) / RFU MAPK11 (11762145_a_at) / Fold change /veh MAPK11 (11762145_a_at) / RFU FIZ1 (11724087_x_at) / Fold change /veh FIZ1 (11724087_x_at) / RFU OASL (11726364_x_at) / Fold change /veh OASL (11726364_x_at) / RFU SOX15 (11748057_x_at) / Fold change /veh SOX15 (11748057_x_at) / RFU CD79A (11719716_a_at) / Fold change /veh CD79A (11719716_a_at) / RFU HIST1H1D (11736915_at) / Fold change /veh HIST1H1D (11736915_at) / RFU CASKIN2 (11723855_a_at) / Fold change /veh CASKIN2 (11723855_a_at) / RFU LOC730098 (11760151_x_at) / Fold change /veh LOC730098 (11760151_x_at) / RFU OR4N2 (11742367_at) / Fold change /veh OR4N2 (11742367_at) / RFU PRRT2 (11749266_a_at) / Fold change /veh PRRT2 (11749266_a_at) / RFU SNX32 (11753110_a_at) / Fold change /veh SNX32 (11753110_a_at) / RFU CDHR5 (11726645_a_at) / Fold change /veh CDHR5 (11726645_a_at) / RFU RCAN1 (11760418_a_at) / Fold change /veh RCAN1 (11760418_a_at) / RFU FAM167A (11723789_a_at) / Fold change /veh FAM167A (11723789_a_at) / RFU FAM26E (11764081_at) / Fold change /veh FAM26E (11764081_at) / RFU ISYNA1 (11749810_s_at) / Fold change /veh ISYNA1 (11749810_s_at) / RFU ACY1 (11761880_at) / Fold change /veh ACY1 (11761880_at) / RFU 11764098_at / Fold change /veh 11764098_at / RFU SAMD14 (11745864_x_at) / Fold change /veh SAMD14 (11745864_x_at) / RFU NPB (11741838_a_at) / Fold change /veh NPB (11741838_a_at) / RFU TMPRSS6 (11731388_a_at) / Fold change /veh TMPRSS6 (11731388_a_at) / RFU KRTAP10-2 (11738614_at) / Fold change /veh KRTAP10-2 (11738614_at) / RFU ARHGAP8 /// PRR5-ARHGAP8 (11727945_x_at) / Fold change /veh ARHGAP8 /// PRR5-ARHGAP8 (11727945_x_at) / RFU KRTAP5-7 /// NADSYN1 (11734609_at) / Fold change /veh KRTAP5-7 /// NADSYN1 (11734609_at) / RFU RASL12 (11751679_a_at) / Fold change /veh RASL12 (11751679_a_at) / RFU CDKN2B (11736163_a_at) / Fold change /veh CDKN2B (11736163_a_at) / RFU PRF1 (11729649_at) / Fold change /veh PRF1 (11729649_at) / RFU, ZNF638 /// ZNF638-IT1 / Fold change vs veh, ZNF638 /// ZNF638-IT1 / RFU, PANK3 / Fold change vs veh, PANK3 / RFU, SH3YL1 / Fold change vs veh, SH3YL1 / RFU, ZEB2 / Fold change vs veh, ZEB2 / RFU, NRIP1 / Fold change vs veh, NRIP1 / RFU, PTTG1IP / Fold change vs veh, PTTG1IP / RFU, CAPN2 / Fold change vs veh, CAPN2 / RFU, MED14 / Fold change vs veh, MED14 / RFU, SNORA58 / Fold change vs veh, SNORA58 / RFU, C1orf63 / Fold change vs veh, C1orf63 / RFU, LRRFIP1 / Fold change vs veh, LRRFIP1 / RFU, NDUFAF7 / Fold change vs veh, NDUFAF7 / RFU, SLC12A2 / Fold change vs veh, SLC12A2 / RFU, IBTK / Fold change vs veh, IBTK / RFU, ESF1 / Fold change vs veh, ESF1 / Fold change vs veh, TMEM50B / RFU, TAOK1 / Fold change vs veh, TAOK1 / RFU, ACBD3 / Fold change vs veh, ACBD3 / RFU, TMA16 / Fold change vs veh, TMA16 / RFU, RWDD3 / Fold change vs veh, RWDD3 / RFU, BCAT1 / Fold change vs veh, BCAT1 / RFU, EDEM3 / Fold change vs veh, EDEM3 / RFU, TMEM33 / Fold change vs veh, TMEM33 / RFU, WDR75 / Fold change vs veh, WDR75 / RFU, AHCTF1 / Fold change vs veh, AHCTF1 / RFU, TFRC / Fold change vs veh, TFRC / RFU, ZDHHC17 / Fold change vs veh, ZDHHC17 / RFU, NOM1 / Fold change vs veh, NOM1 / RFU, ARL8B / Fold change vs veh, ARL8B / RFU, ZBTB11 / Fold change vs veh, ZBTB11 / RFU, TAMM41 / Fold change vs veh, TAMM41 / RFU, KIAA1704 /// LOC100996395 / Fold change vs veh, KIAA1704 /// LOC100996395 / RFU, ING1 / Fold change vs veh, ING1 / RFU, TRMT61B / Fold change vs veh, TRMT61B / RFU, FUBP3 / Fold change vs veh, FUBP3 / RFU, TP53 / Fold change vs veh, TP53 / RFU, TNKS2 / Fold change vs veh, TNKS2 / RFU, ZFP14 / Fold change vs veh, ZFP14 / RFU, ACTR2 / Fold change vs veh, ACTR2 / RFU, PPP3R1 / Fold change vs veh, PPP3R1 / RFU, PIK3R1 / Fold change vs veh, PIK3R1 / RFU, HNRNPA1 / Fold change vs veh, HNRNPA1 / RFU, RNF170 / Fold change vs veh, RNF170 / RFU, ZNF28 / Fold change vs veh, ZNF28 / RFU, RNGTT / Fold change vs veh, RNGTT / RFU, OGT / Fold change vs veh, OGT / RFU, BRD1 / Fold change vs veh, BRD1 / RFU, MARS / Fold change vs veh, MARS / RFU, ZNF655 / Fold change vs veh, ZNF655 / RFU, FAHD1 / Fold change vs veh, FAHD1 / RFU, BDP1 / Fold change vs veh, BDP1 / RFU, LRRCC1 / Fold change vs veh, LRRCC1 / RFU, ARID1A / Fold change vs veh, ARID1A / RFU, ZNF146 / Fold change vs veh, ZNF146 / RFU, ZNF330 / Fold change vs veh, ZNF330 / RFU, GPN3 / Fold change vs veh, GPN3 / RFU, C9orf123 / Fold change vs veh, C9orf123 / RFU, N4BP2L2 / Fold change vs veh, N4BP2L2 / RFU, ARFIP1 / Fold change vs veh, ARFIP1 / RFU, FAM179B / Fold change vs veh, FAM179B / RFU, BCL10 / Fold change vs veh, BCL10 / RFU, UHRF1BP1L / Fold change vs veh, UHRF1BP1L / RFU, BET1 / Fold change vs veh, BET1 / RFU, CNOT2 / Fold change vs veh, CNOT2 / RFU, ZNF268 / Fold change vs veh, ZNF268 / Fold change vs veh, ZNF507 / RFU, DGCR2 / Fold change vs veh, DGCR2 / RFU, WDSUB1 / Fold change vs veh, WDSUB1 / Fold change vs veh, HSP90B1 /// MIR3652 / RFU, ADSS / Fold change vs veh, ADSS / RFU, GK / Fold change vs veh, GK / RFU, ZNF148 / Fold change vs veh, ZNF148 / RFU, TAF9 / Fold change vs veh, TAF9 / RFU, SLC1A5 / Fold change vs veh, SLC1A5 / RFU, SLMO2 / Fold change vs veh, SLMO2 / RFU, ABCC4 / Fold change vs veh, ABCC4 / RFU, LOC101060439 /// RAP1B / Fold change vs veh, LOC101060439 /// RAP1B / RFU, RFX7 / Fold change vs veh, RFX7 / RFU, GTPBP10 / Fold change vs veh, GTPBP10 / RFU, CNEP1R1 / Fold change vs veh, CNEP1R1 / RFU, BIVM-ERCC5 /// ERCC5 / Fold change vs veh, BIVM-ERCC5 /// ERCC5 / RFU, ILF3 / Fold change vs veh, ILF3 / RFU 11762660_at / Fold change /veh 11762660_at / RFU VCAN (11757783_s_at) / Fold change /veh VCAN (11757783_s_at) / RFU DDX43 (11728927_at) / Fold change /veh DDX43 (11728927_at) / RFU KRT8 (11758188_x_at) / Fold change /veh KRT8 (11758188_x_at) / RFU NKD1 (11759106_at) / Fold change /veh NKD1 (11759106_at) / RFU SRD5A1 (11742802_a_at) / Fold change /veh SRD5A1 (11742802_a_at) / RFU TPSAB1 /// TPSB2 (11721975_s_at) / Fold change /veh TPSAB1 /// TPSB2 (11721975_s_at) / RFU GSTM3 (11746129_a_at) / Fold change /veh GSTM3 (11746129_a_at) / RFU IL23R (11737362_x_at) / Fold change /veh IL23R (11737362_x_at) / RFU TMEM51 (11727254_a_at) / Fold change /veh TMEM51 (11727254_a_at) / RFU PIWIL2 (11732686_x_at) / Fold change /veh PIWIL2 (11732686_x_at) / RFU ORM1 (11744905_x_at) / Fold change /veh ORM1 (11744905_x_at) / RFU CCDC152 (11743942_at) / Fold change /veh CCDC152 (11743942_at) / RFU ECM1 (11717891_a_at) / Fold change /veh ECM1 (11717891_a_at) / RFU IL23R (11748794_a_at) / Fold change /veh IL23R (11748794_a_at) / RFU TNFAIP8L3 (11732012_x_at) / Fold change /veh TNFAIP8L3 (11732012_x_at) / RFU MBOAT4 (11741988_at) / Fold change /veh MBOAT4 (11741988_at) / RFU 11764193_at / Fold change /veh 11764193_at / RFU TMEM53 (11763286_at) / Fold change /veh TMEM53 (11763286_at) / RFU MAGEB2 (11727129_at) / Fold change /veh MAGEB2 (11727129_at) / RFU TMEM200A (11744735_a_at) / Fold change /veh TMEM200A (11744735_a_at) / RFU CCDC152 (11751479_a_at) / Fold change /veh CCDC152 (11751479_a_at) / RFU FAM211A (11726209_a_at) / Fold change /veh FAM211A (11726209_a_at) / RFU RGS16 (11746705_a_at) / Fold change /veh RGS16 (11746705_a_at) / RFU VCAN (11755009_s_at) / Fold change /veh VCAN (11755009_s_at) / RFU RHOB (11743442_s_at) / Fold change /veh RHOB (11743442_s_at) / RFU RGS16 (11720943_a_at) / Fold change /veh RGS16 (11720943_a_at) / RFU RGS16 (11720944_at) / Fold change /veh RGS16 (11720944_at) / RFU, VPS4B / Fold change vs veh, VPS4B / RFU, CREB1 / Fold change vs veh, CREB1 / RFU, DNAJC13 / Fold change vs veh, DNAJC13 / RFU, GNAQ / Fold change vs veh, GNAQ / RFU, CDK5R1 / Fold change vs veh, CDK5R1 / RFU, ZRANB3 / Fold change vs veh, ZRANB3 / RFU, CUL4A / Fold change vs veh, CUL4A / RFU, CCNY / Fold change vs veh, CCNY / RFU, UFL1 / Fold change vs veh, UFL1 / RFU, COG3 / Fold change vs veh, COG3 / RFU, DIAPH2 / Fold change vs veh, DIAPH2 / RFU, SKA2 / Fold change vs veh, SKA2 / RFU, AFF3 / Fold change vs veh, AFF3 / RFU, LMF1 / Fold change vs veh, LMF1 / RFU, IPO11 / Fold change vs veh, IPO11 / RFU, DFFB / Fold change vs veh, DFFB / RFU, FOXP1 / Fold change vs veh, FOXP1 / RFU, CARD8 / Fold change vs veh, CARD8 / RFU, STRN3 / Fold change vs veh, STRN3 / RFU, ADK / Fold change vs veh, ADK / RFU, RASSF2 / Fold change vs veh, RASSF2 / RFU, WIPF1 / Fold change vs veh, WIPF1 / RFU, LARP1B / Fold change vs veh, LARP1B / RFU, RASA1 / Fold change vs veh, RASA1 / RFU, RB1 / Fold change vs veh, RB1 / RFU, PPFIA1 / Fold change vs veh, PPFIA1 / RFU, MAT2A / Fold change vs veh, MAT2A / RFU, CCT5 / Fold change vs veh, CCT5 / RFU, WDR92 / Fold change vs veh, WDR92 / RFU, CUX1 / Fold change vs veh, CUX1 / RFU, TTC7A / Fold change vs veh, TTC7A / RFU, TMEM135 / Fold change vs veh, TMEM135 / RFU, DEPTOR / Fold change vs veh, DEPTOR / RFU, CPM / Fold change vs veh, CPM / RFU, DNAJB6 / Fold change vs veh, DNAJB6 / RFU, CACNA2D3 / Fold change vs veh, CACNA2D3 / RFU, DTX4 / Fold change vs veh, DTX4 / RFU, TFCP2 / Fold change vs veh, TFCP2 / RFU, GMCL1 /// GMCL1P1 / Fold change vs veh, GMCL1 /// GMCL1P1 / RFU, AEBP2 / Fold change vs veh, AEBP2 / RFU, SNHG1 /// SNORD22 /// SNORD25 /// SNORD26 /// SNORD27 /// SNORD28 /// SNORD29 /// SNORD31 / Fold change vs veh, SNHG1 /// SNORD22 /// SNORD25 /// SNORD26 /// SNORD27 /// SNORD28 /// SNORD29 /// SNORD31 / Fold change (Aza/veh), C12orf56 (ProbeSet 11735607_a_at) / Fold change (ACY-1035/veh), C12orf56 (ProbeSet 11735607_a_at) / Fold change (Aza/veh), FGFR1OP (ProbeSet 11751329_s_at) / Fold change (ACY-1035/veh), FGFR1OP (ProbeSet 11751329_s_at) / Fold change (Aza/veh), VPS36 (ProbeSet 11739960_a_at) / Fold change (ACY-1035/veh), VPS36 (ProbeSet 11739960_a_at) / RFU SYPL1 (11715823_x_at) / Fold change /veh SYPL1 (11715823_x_at) / RFU IGFBP7 (11715501_s_at) / Fold change /veh IGFBP7 (11715501_s_at) / RFU REEP3 (11722064_at) / Fold change /veh REEP3 (11722064_at) / RFU IGLL1 (11728026_x_at) / Fold change /veh IGLL1 (11728026_x_at): dose or concentration left out as unconfirmed
# Conditions: ProbeSet 11755425_a_at; LIST B
compound,measurement,value
Nc1ccc(-c2cccs2)cc1NC(=O)c1ccc2c(c1)cc(C1CC1)n2CCN1CCOCC1 [ACY-1035],"RFU, FAM179B",77.88 RFU

# From publication PMC5218480 (PLoS ONE, 2017)
